Assay results from patent US9682926B2, “Cancer chemotherapeutic agent/formulation, manufacture and use thereof” (Bose Institute, priority 2012, dated 2017).
Where “and” joins values, the source holds several entries; their conditions need not be identical. Equal entries are not always repeated. Where two headings read alike, the source gives them in different places.

Key:
[1] = Procedure: (§1) The homogenate was then centrifuged at 10,000 g at 4° C. for 20 mins.
The amount of malondialdehyde was measured by reaction with thiobarbituric acid at 532 nm using spectrophotometer. MDA levels were calculated using the standard curve of malondialdehyde and its level expressed in nM/mg of protein.

S-180 tumor cells [2] = tested on: S-180 tumor cells
From the text: (§2) For the determination of cell cycle phase distribution of nuclear DNA, cells from bone marrow and tumor tissue (1×10^6 cells) were harvested from tumor bearing untreated and treated mice.

bone marrow cells [3] = tested on: bone marrow cells
From the text: as §2

SOD, CAT and GST = tested on: SOD, CAT and GST
Procedure: as §1
Briefly, assay mixture consists of 3 mL of H2O2 phosphate buffer and 0.05 mL of the supernatant of the tissue homogenate. The change in absorbance was recorded for 2 min at 30 s interval at 240 nm using spectrophotometer.
One unit of enzyme activity is defined as the amount of enzyme necessary for inhibiting the reaction by 50%. Auto oxidation of Pyrogallol in Tris-HCL buffer (50 mM, pH 7.5) is measured by increase in absorbance at 420 nm.

bone marrow cells [4] = format: in vivo, Swiss albino mice; conditions: S-180 tumor bearers
From the text: (§3) The cells were resuspended in RPMI-1640.

bone marrow cells [5] = format: in vivo; conditions: EAC tumor bearing mice
From the text: as §3

human PBMC [6] = experiment: Cytotoxicity (cell viability) of M2 against human PBMC; format: cell-based; conditions: highest dose 30 μM
[7] = biological target: G-Quadruplex 5′-TAGGG(TTAGGG)3-3′; experiment: Fluorescence emission titration with G-Quadruplex; conditions: read-out: equilibrium dissociation constant (KD); from change in fluorescence emission maxima of G-Quadruplex
Procedure: The emission spectra of a DNA duplex and G-Quadruplex sequence were recorded at room temperature using Hitachi spectrometer (F-700 FL spectrophotometer) with one cm path-length quartz cuvette. The emission spectrum was recorded from 300-500 nm with an excitation wavelength of 260 nm. Excitation and emission slits were set to 5 nm each. Emission spectra were recorded by titrating small molecules up to 50 μM concentration against 10 μM G-Quadruplex and duplex DNA.

PCNA [8] = experiment: Western blot of PCNA in bone marrow; format: in vivo, Swiss albino mice; conditions: all M2 treated groups, compared to sarcoma control
Procedure: (§4) Cell lysates were obtained and equal amounts of protein from each sample were diluted with loading buffer, denatured, and separated by 10% sodium dodecyl sulfate-polyacrylamide gel electrophoresis (SDS-PAGE) followed by protein transfer to polyvinylidene fluoride membranes (PVDF). […] Proteins were detected by incubation with corresponding primary antibodies (anti p53, anti-p21, anti-Nrf-2, anti-ERK3 and anti-PCNA) antibodies followed by blotting with AP-conjugated secondary antibody. The blots were then exposed to NBT/BCIP substrate for detection. This analysis was performed three times.

MDA MB 231 (p53 mutated) = experiment: Cell cycle analysis of M2 treated p53 mutated breast cancer cell line (PI flowcytometry); format: cell-based; conditions: 12 hour exposure
Procedure: Cell cycle analyses were performed with the p53 mutated breast cancer cell line to explore deeper into the probable mechanism. […] For experiments, cells (10^6) were plated with 2% serum and then the required experiments were performed. Cells were harvested after 12 hour exposure with the compound at varying concentrations and cell cycle phase distribution of nuclear DNA was determined by flowcytometry using propidium iodide (PI) as DNA-binding fluorochrome.
Analyses of the cells in sub GO phase and S/G2/M are given as mean±Standard Deviation of five independent experiments.

[9] = tested on: HeLA: Cervical Cancer Cell with unstable P53; experiment: Cytotoxicity against cancer cell lines: HeLA; format: cell-based
Procedure: (§5) Cancer cell lines with functional or disrupted p53 expression were maintained in ATCC recommended culture media supplemented with 10% FBS, 100 μg/ml streptomycin and 50 units/ml penicillin, at 37° C. in a humidified incubator containing 5% CO2. For experiments, cells (10^6) were plated with 2% serum and then the required experiments were performed. […] Simultaneously, the effect of the compound was also investigated in one p53 mutated breast cancer cell line and in one cervical cancer cell line with disrupted p53 pathway.

human PBMC [10] = experiment: Cytotoxicity (cell viability) of M2 against human PBMC; format: cell-based; conditions: for Total Cell Count (% survival): mean ± SD of five experiments
Procedure: Peripheral blood mononuclear cells (PBMC) were isolated from normal human blood and were maintained in RPMI supplemented with 10% FBS, 100 μg/ml streptomycin and 50 units/ml penicillin, at 37° C. in a humidified incubator containing 5% CO2. […] The doses that were tested ranged between 0.5433×10^−7 μM to 35 μM.

[11] = Serum biochemical markers of toxicity (ALT, AST, ALP, creatinine); format: in vivo, Swiss albino mice; conditions: all M2 treated groups except the highest dose (40 μM)
Procedure: Alanine aminotransferase (ALT), aspartate aminotransferase (AST), alkaline phosphatase (ALP) and creatinine levels were measured from collected sera using kits (Sigma).

S-180 tumor cells [12] = experiment: Comet assay in sarcoma tumor cells from treated mice (apoptosis); format: in vivo, Swiss albino mice; conditions: S-180 bearing mice, vs untreated sarcoma control
Procedure: Comet assay is a sensitive, reliable, and rapid method for DNA damage evaluation. The segmented DNA emigrates from the nucleus towards the anode under an electrical current to produce comets. About 400 μl of the cell suspension was mixed with 800 μl 1% low melting point agarose. Then 100 μl of the mixture was layered on slides precoated with a 1% normal melting point agarose and then covered with a cover slip. The slides were then placed in a refrigerator for 5 min. Then cover slips were carefully removed and the slides were left in a dark place except for the positive control slides. The positive control slides were treated with 200 μM H2O2 solution for 17 min at 4° C., while the negative control slides remained untreated. Then all the slides were immersed in cold lysis solution (2.5 M NaCl, 100 mM EDTA, 0.2 M NaOH, 10 mM Tris, 1% Triton X-100, pH=10), protected from light and refrigerated at 4° C. for 45 min. Slides were then left in freshly prepared electrophoresis solution (0.3 M NaOH, 1 mM EDTA, pH>13,) for 40 min. Electrophoresis was performed using the same solution at 300 mA, 25 V for 45 min. After electrophoresis the slides were neutralized gently with 0.4 M Tris buffer at pH 7.5 for 10 min and stained with 20 μg/ml ethidium bromide for 7 min. […] Comets were counted in four to five different fields of a section, and data are summarized in terms of percent comet. […]

[13] = tested on: MCF-7: Breast Cancer cell with p53 wild type; experiment: Cytotoxicity against cancer cell lines: MCF-7; format: cell-based
Procedure: as §5

PCNA [14] = experiment: Western blot of PCNA in tumor tissue; format: in vivo, Swiss albino mice; conditions: S-180 tumor tissue
Procedure: as §4

[15] = tested on: HepG2: Liver Cancer cell with wild type p53; experiment: Cytotoxicity against cancer cell lines: HepG2; format: cell-based
Procedure: as §5

[16] = tested on: Ehrlich's ascites carcinoma (EAC); experiment: Ehrlich's ascites carcinoma (EAC) tumor model: tumor volume and cell count; format: in vivo; conditions: EAC bearing mice, 35 μM, vs EAC control and cyclophosphamide treated
From the text: Ehrlich's ascites carcinoma (EAC) cells were maintained by serial intra-peritoneal passage of 10^5 cells per mice. EAC cells were collected from tumor-bearing mice at the exponential phase of growth, roughly 7 days after tumor transplant. The cells were drawn out aseptically with the help of a fine needle. The cells were washed in PBS and counted with the help of a Hemocytometer by the Trypan Blue dye exclusion test. The cells were suspended in PBS and inoculated into the next batch of mice.

[17] = tested on: MDA MB 231: Breast Cancer cell with p53 mutation; experiment: Cytotoxicity against cancer cell lines: MDA MB 231; format: cell-based
Procedure: as §5

ERK = experiment: Western blot of ERK in tumor tissue; format: in vivo, Swiss albino mice; conditions: S-180 tumor tissue, compared to sarcoma control and cyclophosphamide treated groups
Procedure: as §4

Nrf-2 = experiment: Western blot of Nrf-2 in liver; format: in vivo, Swiss albino mice; conditions: S-180 tumor bearers, compared to sarcoma control
Procedure: as §4

Sarcoma 180 cells = experiment: Cytotoxicity study against Sarcoma 180 cells in vitro; format: cell-based, murine; conditions: Sarcoma 180 (in vitro)
Procedure: Before entering into the in vivo experiments with solid transplantable tumour model of sarcoma 180, the drug's efficacy was tested against the same tumor cell in vitro.

[18] = tested on: A 549: Lung Cancer cell with wild type p53; experiment: Cytotoxicity against cancer cell lines: A 549; format: cell-based
Procedure: as §5

[19] = S-180 tumor bearers, cyclophosphamide treatment

O=P1(N(CCCl)CCCl)NCCCO1 (stereo not shown) [cyclophosphamide, reference compound]
hepatic LPO levels (oxidative stress) ([1]; liver of S-180 tumor bearers, vs sarcoma control): further enhanced
hypoploid cells (sub-G0 region) of tumor cells (S-180 tumor cells [2]; S-180 bearing mice, cyclophosphamide treated group): 42.1%
bone marrow hypoploidy peak (bone marrow cells [3]; [19]): 48.5%
bone marrow proliferative phases (S and G2/M combined) (bone marrow cells [3]; [19]): 3%
activity of hepatic anti-oxidant enzymes SOD, CAT and GST (SOD, CAT and GST; liver of S-180 tumor bearers, vs normal and sarcoma control): depression
bone marrow cell count / bone marrow suppression (bone marrow cells [4]): significant depression
effect on bone marrow (cell count) (bone marrow cells [5]): induces myelosuppression

CN(CCC#N)c1ccc(C=NCCCN=Cc2ccc(N(C)CCC#N)cc2)cc1 [M2, Bis(3-[4-({[3-({4-[(2 cyanoethyl)(methyl)amino]benzylidene}amino)propyl]imino}methyl)(methyl)anilino]propanenitrile)]
cytotoxic effect on human PBMC (human PBMC [6]): cytotoxic effect
Kd [7]: 31 ± 1.2 µM
PCNA expression in bone marrow (PCNA [8]): significant increase
hepatic LPO levels (oxidative stress) ([1]; mouse, in vivo): significant decrease
hypoploid cells (sub-G0 region) of tumor cells (S-180 tumor cells [2]; mouse, in vivo): 39.94% and 69.2% and 41.5%
proliferative stage (sum of S and G2/M) of tumor cells (S-180 tumor cells [2]; mouse, in vivo): distinctive depression
bone marrow hypoploidy peak (bone marrow cells [3]; mouse, in vivo): 5.4%
bone marrow proliferative phase (bone marrow cells [3]; mouse, in vivo): did not decrease
% S/G2/M as from cell cycle analysis (MDA MB 231 (p53 mutated); MDA MB 231, dose 15 μM): 10.76 ± 1.38%
% Sub G0 as from cell cycle analysis (MDA MB 231 (p53 mutated); MDA MB 231, dose 15 μM): 16.08 ± 2.28%
% S/G2/M as from cell cycle analysis (MDA MB 231 (p53 mutated); MDA MB 231, dose 20 μM): 12.09 ± 1.77%
% Sub G0 as from cell cycle analysis (MDA MB 231 (p53 mutated); MDA MB 231, dose 20 μM): 27.38 ± 2.28%
% S/G2/M as from cell cycle analysis (MDA MB 231 (p53 mutated); MDA MB 231, dose 25 μM): 16.94 ± 4.82%
% Sub G0 as from cell cycle analysis (MDA MB 231 (p53 mutated); MDA MB 231, dose 25 μM): 30.50 ± 4.96%
Death Percentages ([9]; dose 15 μM): 20.5 ± 4.20%
Death Percentages ([9]; dose 20 μM): 37.75 ± 5.44%
Death Percentages ([9]; dose 25 μM): 46.75 ± 5.38%
effect on the viability of human PBMC (human PBMC [10]; doses 0.1 to 25 μM): negligible effect
PBMC that could not survive the treatment (human PBMC [10]; human PBMC, 35 μM, 12 hours): ~25%
Total Cell Count (% survival) (human PBMC [10]; human PBMC, dose 1 μM): 90.67 ± 2.16%
Total Cell Count (% survival) (human PBMC [10]; human PBMC, dose 5 μM): 89.50 ± 1.05%
Total Cell Count (% survival) (human PBMC [10]; human PBMC, dose 10 μM): 88.67 ± 1.75%
Total Cell Count (% survival) (human PBMC [10]; human PBMC, dose 15 μM): 88.83 ± 1.47%
Total Cell Count (% survival) (human PBMC [10]; human PBMC, dose 20 μM): 87.33 ± 1.97%
Total Cell Count (% survival) (human PBMC [10]; human PBMC, dose 25 μM): 85.17 ± 1.94%
Total Cell Count (% survival) (human PBMC [10]; human PBMC, dose 30 μM): 77.67 ± 3.44%
Serum ALT, AST, ALP values and creatinine levels [11]: within the normal range
DNA damage in tumor cells (percentage of comet cells per field) (S-180 tumor cells [12]): significant DNA damage
Death Percentages ([13]; MCF-7, dose 15 μM): 23.00 ± 7.26%
Death Percentages ([13]; MCF-7, dose 20 μM): 32.5 ± 2.89%
Death Percentages ([13]; MCF-7, dose 25 μM): 41.5 ± 2.65%
PCNA expression in tumor tissues (PCNA [14]): decrease
Death Percentages ([15]; HepG2, dose 15 μM): 20.75 ± 5.25%
Death Percentages ([15]; HepG2, dose 20 μM): 38.5 ± 6.25%,
Death Percentages ([15]; HepG2, dose 25 μM): 55.86 ± 7.12%
activity of hepatic anti-oxidant enzymes SOD, CAT and GST (SOD, CAT and GST; mouse, in vivo): increase
tumor cell count [16]: significant reduction
tumor volume [16]: significant reduction
Death Percentages ([17]; MDA MB 231, dose 15 μM): 36.50 ± 5.00%
Death Percentages ([17]; MDA MB 231, dose 20 μM): 47.00 ± 6.78%
Death Percentages ([17]; MDA MB 231, dose 25 μM): 60% and 60.25 ± 9.03%
expression of ERK in tumor tissues (ERK): significantly reduce
Nrf-2 expression in the liver (Nrf-2): increased
bone marrow cell count / bone marrow suppression (bone marrow cells [4]): did not cause bone marrow suppression
Death Percentages (Sarcoma 180 cells; dose 15 μM): 36.67 ± 6.12%
Death Percentages (Sarcoma 180 cells; dose 20 μM): 50.33 ± 5.03%
Death Percentages (Sarcoma 180 cells; dose 25 μM): 57.33 ± 4.16%
Death Percentages ([18]; A 549, dose 15 μM): 26 ± 4.32%
Death Percentages ([18]; A 549, dose 20 μM): 34.25 ± 4.35%
Death Percentages ([18]; A 549, dose 25 μM): 47.75 ± 6.34%
effect on bone marrow (cell count) (bone marrow cells [5]): protective effect
